# Assay results: ChEMBL document CHEMBL1154949, “2-Amino-aryl-7-aryl-benzoxazoles as potent, selective and orally available JAK2 inhibitors” (Bioorg Med Chem Lett, 2010)
# How the values were obtained:
# [1] = target: Tyrosine-protein kinase JAK2 (Homo sapiens, UniProt O60674); assay: Inhibition of GST-tagged JAK2 assessed as inhibition of biotinylated JAK3tide peptide phosphorylation after 60 mins by caliper mobility shift assay
# [2] = target: Non-receptor tyrosine-protein kinase TYK2 (Homo sapiens, UniProt P29597); assay: Inhibition of GST-tagged TYK2 assessed as inhibition of biotinylated IRS1 substrate phosphorylation after 60 mins by caliper mobility shift assay
# Non-receptor tyrosine-protein kinase TYK2, sequence (P29597 whole entry): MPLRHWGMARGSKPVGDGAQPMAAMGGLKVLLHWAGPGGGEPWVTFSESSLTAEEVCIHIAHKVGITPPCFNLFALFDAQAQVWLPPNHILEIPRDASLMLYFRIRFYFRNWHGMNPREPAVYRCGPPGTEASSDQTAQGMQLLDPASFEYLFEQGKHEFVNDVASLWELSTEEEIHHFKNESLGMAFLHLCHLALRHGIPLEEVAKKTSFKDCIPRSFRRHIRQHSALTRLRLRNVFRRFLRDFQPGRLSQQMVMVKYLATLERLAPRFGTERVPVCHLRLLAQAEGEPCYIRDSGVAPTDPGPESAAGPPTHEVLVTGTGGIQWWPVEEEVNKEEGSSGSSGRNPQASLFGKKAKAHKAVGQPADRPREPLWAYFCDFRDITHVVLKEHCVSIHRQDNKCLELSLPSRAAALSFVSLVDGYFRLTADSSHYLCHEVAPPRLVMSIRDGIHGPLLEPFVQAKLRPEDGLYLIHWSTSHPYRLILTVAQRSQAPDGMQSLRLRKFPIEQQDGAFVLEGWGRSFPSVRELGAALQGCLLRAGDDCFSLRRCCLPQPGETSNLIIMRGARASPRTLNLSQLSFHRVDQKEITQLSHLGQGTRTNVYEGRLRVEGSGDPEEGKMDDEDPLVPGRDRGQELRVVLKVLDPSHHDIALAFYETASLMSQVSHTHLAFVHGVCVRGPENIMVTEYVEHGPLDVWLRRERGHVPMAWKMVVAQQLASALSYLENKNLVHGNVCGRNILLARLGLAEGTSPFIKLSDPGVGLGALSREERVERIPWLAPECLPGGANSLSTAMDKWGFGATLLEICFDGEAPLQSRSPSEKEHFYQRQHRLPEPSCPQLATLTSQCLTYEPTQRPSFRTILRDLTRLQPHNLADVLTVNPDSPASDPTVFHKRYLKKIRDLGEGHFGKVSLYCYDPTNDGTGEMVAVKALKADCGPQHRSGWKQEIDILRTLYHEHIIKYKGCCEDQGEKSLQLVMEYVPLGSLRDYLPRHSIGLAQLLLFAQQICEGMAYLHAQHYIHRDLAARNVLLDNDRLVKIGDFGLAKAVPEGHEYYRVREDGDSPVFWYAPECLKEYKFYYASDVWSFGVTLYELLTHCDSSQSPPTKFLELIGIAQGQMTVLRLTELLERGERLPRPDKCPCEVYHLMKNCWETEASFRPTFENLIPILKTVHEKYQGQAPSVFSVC
# [3] = target: T1, Tyrosine-protein kinase JAK3 (Homo sapiens, UniProt P52333); assay: Inhibition of GST-tagged JAK3 assessed as inhibition of biotinylated JAK3tide peptide phosphorylation after 60 mins by caliper mobility shift assay
# T1 sequence (P52333 whole entry): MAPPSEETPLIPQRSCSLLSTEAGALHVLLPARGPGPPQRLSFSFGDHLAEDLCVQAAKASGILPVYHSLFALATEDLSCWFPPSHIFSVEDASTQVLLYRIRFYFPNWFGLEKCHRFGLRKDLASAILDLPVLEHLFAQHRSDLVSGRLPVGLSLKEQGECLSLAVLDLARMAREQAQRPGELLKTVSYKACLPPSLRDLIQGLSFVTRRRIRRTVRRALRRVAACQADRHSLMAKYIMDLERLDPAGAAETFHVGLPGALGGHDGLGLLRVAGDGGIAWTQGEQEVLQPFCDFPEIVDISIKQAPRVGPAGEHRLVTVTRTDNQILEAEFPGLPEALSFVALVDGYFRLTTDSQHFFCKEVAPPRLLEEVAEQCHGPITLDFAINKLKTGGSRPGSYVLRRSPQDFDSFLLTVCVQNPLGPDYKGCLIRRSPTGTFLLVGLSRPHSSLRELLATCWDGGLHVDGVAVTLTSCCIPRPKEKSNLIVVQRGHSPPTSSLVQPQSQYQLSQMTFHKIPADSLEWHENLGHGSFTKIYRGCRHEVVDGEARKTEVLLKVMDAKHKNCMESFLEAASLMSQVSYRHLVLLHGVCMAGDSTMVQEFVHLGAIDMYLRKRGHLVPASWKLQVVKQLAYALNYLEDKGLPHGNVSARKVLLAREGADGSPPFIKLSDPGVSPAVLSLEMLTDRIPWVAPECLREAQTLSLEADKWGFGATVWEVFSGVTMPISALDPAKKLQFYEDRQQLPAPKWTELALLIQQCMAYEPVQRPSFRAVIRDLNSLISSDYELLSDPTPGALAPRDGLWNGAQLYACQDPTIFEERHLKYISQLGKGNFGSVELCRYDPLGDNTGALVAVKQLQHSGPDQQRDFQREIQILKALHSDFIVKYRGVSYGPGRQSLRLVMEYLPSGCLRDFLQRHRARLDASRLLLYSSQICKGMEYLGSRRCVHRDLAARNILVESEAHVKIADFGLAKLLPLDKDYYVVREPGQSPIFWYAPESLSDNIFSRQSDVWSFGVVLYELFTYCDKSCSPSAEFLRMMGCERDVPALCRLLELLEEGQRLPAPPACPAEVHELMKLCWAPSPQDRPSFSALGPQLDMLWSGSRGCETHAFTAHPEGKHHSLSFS
# [4] = Antiproliferative activity against human SET2 cells harboring JAK2 V617F mutant after 72 hrs by […]; type: functional; settings: SET-2, 72 h
# [5] = target: Tyrosine-protein kinase JAK1 (Homo sapiens, UniProt P23458); assay: Inhibition of GST-tagged JAK1 assessed as inhibition of biotinylated IRS1 substrate phosphorylation after 60 mins by caliper mobility shift assay
# Tyrosine-protein kinase JAK1, sequence (P23458 whole entry): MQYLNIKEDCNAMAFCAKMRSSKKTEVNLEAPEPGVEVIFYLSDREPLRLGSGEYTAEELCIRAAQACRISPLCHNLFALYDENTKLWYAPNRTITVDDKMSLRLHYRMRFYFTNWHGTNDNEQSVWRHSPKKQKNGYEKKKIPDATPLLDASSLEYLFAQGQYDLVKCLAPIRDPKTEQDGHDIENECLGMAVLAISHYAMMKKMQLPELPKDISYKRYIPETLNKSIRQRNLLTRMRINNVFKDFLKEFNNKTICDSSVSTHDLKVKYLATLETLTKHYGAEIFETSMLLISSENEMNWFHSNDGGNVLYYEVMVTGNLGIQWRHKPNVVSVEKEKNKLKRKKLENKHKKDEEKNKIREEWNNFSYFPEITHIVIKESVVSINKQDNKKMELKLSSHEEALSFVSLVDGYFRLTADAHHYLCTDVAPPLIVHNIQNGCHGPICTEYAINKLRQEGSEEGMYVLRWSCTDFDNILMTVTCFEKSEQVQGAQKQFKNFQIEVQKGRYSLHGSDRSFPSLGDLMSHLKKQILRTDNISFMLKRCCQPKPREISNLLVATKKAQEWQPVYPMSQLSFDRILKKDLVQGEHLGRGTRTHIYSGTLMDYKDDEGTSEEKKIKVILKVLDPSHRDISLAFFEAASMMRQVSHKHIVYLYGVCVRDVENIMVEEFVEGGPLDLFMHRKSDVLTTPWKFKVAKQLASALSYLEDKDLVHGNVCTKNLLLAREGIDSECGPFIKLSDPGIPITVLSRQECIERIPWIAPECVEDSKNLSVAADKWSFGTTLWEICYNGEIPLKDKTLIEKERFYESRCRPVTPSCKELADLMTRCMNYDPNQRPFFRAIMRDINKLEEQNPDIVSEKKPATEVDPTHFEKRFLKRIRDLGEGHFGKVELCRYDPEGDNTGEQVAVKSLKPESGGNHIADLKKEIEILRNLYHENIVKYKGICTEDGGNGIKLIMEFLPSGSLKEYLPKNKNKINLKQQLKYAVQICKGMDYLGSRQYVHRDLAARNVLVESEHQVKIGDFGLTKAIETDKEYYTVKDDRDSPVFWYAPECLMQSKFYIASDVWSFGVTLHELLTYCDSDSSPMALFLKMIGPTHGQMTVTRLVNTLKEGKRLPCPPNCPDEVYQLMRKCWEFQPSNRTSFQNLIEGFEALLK
# [6] = Cmax in rat at 2.5 ml/kg, po; type: ADME, organism-based; parameters: dose 2.5 ml/kg, route oral; settings: in vivo
# [7] = Volume of distribution at steady state in rat at 0.5 ml/kg, iv; type: ADME, organism-based; settings: in vivo, read-out: Vdss
# [8] = Tmax in rat at 2.5 ml/kg, po; type: ADME, organism-based; settings: in vivo
# [9] = Terminal half life in rat at 0.5 ml/kg, iv; type: ADME, organism-based; settings: in vivo
# [10] = Clearance in rat at 0.5 ml/kg, iv; type: ADME, organism-based; settings: in vivo
# [11] = Oral bioavailability in rat at 2.5 ml/kg; type: ADME, organism-based; settings: in vivo
# Rattus norvegicus [12] = assay: Dose normalized AUC in rat at 1 mg/kg, po; type: ADME, organism-based; parameters: dose 1 mg/kg, route oral; settings: in vivo
# Rattus norvegicus [13] = assay: Dose normalized AUC in rat at 1 mg/kg, iv; type: ADME, organism-based; parameters: dose 1 mg/kg, route intravenous; settings: in vivo
# Tyrosine-protein kinase JAK2, sequence (O60674 whole entry): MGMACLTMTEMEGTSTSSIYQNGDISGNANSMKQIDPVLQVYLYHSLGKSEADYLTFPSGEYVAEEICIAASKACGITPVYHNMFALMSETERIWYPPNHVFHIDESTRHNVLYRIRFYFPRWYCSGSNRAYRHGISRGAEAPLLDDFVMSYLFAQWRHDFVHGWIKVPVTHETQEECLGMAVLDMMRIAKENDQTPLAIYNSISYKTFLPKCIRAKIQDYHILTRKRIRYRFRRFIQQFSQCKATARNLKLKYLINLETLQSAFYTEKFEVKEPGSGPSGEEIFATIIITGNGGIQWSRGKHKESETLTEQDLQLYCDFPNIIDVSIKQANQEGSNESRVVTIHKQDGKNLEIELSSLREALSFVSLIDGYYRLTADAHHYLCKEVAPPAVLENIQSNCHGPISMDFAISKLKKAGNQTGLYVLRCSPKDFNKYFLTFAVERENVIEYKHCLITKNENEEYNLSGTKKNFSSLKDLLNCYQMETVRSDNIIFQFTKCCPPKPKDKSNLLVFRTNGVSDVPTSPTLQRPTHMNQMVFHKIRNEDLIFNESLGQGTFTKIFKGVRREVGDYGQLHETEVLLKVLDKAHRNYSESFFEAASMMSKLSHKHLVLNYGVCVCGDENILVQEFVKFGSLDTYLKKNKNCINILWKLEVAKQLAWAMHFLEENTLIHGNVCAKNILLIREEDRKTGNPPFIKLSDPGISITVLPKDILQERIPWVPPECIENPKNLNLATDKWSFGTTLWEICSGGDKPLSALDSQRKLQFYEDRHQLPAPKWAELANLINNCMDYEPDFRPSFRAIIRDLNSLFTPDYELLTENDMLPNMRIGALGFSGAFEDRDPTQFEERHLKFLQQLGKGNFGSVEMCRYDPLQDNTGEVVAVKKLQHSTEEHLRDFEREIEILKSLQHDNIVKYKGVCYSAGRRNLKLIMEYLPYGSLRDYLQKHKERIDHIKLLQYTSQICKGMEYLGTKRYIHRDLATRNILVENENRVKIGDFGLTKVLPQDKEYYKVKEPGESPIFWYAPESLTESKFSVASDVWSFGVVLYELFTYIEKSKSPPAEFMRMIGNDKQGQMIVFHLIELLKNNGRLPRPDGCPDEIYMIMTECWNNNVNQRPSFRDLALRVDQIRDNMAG
IC50 [1] [nM],IC50 [2] [nM],IC50 [3] [nM],IC50 [5] [nM],Cmax [6] [nM],Vd [7] [L/kg],Tmax [8] [h],half-life [9] [h],clearance [10] [mL/min/kg],bioavailability [11] [%],AUC (Rattus norvegicus [12]) [µM·h],AUC (Rattus norvegicus [13]) [µM·h],SMILES,GI50 [4] [nM]
5,97,220,35,,,,,,,,,Cc1cc(Nc2nc3cccc(-c4cc(F)c(CN5CCOCC5)c(F)c4)c3o2)ccc1C(=O)NCCCN(C)C,410
5,200,160,140,,,,,,,,,Cc1cc(Nc2nc3cccc(-c4cc(F)c(CN5CCOCC5)c(F)c4)c3o2)ccc1C(=O)N(C)C,200
,3400,> 10000,710,,,,,,,,,COc1cc(Nc2nc3cccc(-c4ccccc4)c3o2)cc(OC)c1OC,
440,> 10000,> 10000,5300,,,,,,,,,COc1cc(Nc2nc3cccc(-c4cccc(Cl)c4)c3o2)cc(OC)c1OC,
,> 10000,> 10000,8900,,,,,,,,,COc1ccc(-c2cccc3nc(Nc4cc(OC)c(OC)c(OC)c4)oc23)cc1,
110,640,450,760,,,,,,,,,COc1cc(Nc2nc3cccc(-c4ccccn4)c3o2)cc(OC)c1OC,
< 3,63,,22,,,,,,,,,COc1cc(Nc2nc3cccc(-c4ccc(C(=O)N5CCOCC5)c(F)c4)c3o2)cc(OC)c1OC,150
,310,300,82,,,,,,,,,COc1cc(Nc2nc3cccc(-c4ccc(CN5CCOCC5)cc4)c3o2)cc(OC)c1OC,420
39,730,620,180,,,,,,,,,CN(C)C(=O)c1ccc(Nc2nc3cccc(-c4ccc(C(=O)N5CCOCC5)cc4)c3o2)cc1,
8,,,130,,,,,,,,,Cc1cc(Nc2nc3cccc(-c4ccc(C(=O)N5CCOCC5)cc4)c3o2)ccc1C(=O)N(C)C,490
8,1400,670,210,,,,,,,,,COc1cc(Nc2nc3cccc(-c4ccc5ncccc5c4)c3o2)cc(OC)c1OC,500
150,3600,2000,680,,,,,,,,,COc1cc(Nc2nc3cccc(-c4cccc(NS(C)(=O)=O)c4)c3o2)cc(OC)c1OC,
5,150,130,47,,,,,,,,,COc1cc(Nc2nc3cccc(-c4ccc(NS(C)(=O)=O)cc4)c3o2)cc(OC)c1OC,130
8,110,400,27.5,,,,,,,,,COc1cc(Nc2nc3cccc(-c4ccc(C(=O)N5CCOCC5)cc4)c3o2)cc(OC)c1OC,160
5,120,190,48,242,2.3,3.5,3.2,15,102,2.435,2.391,CNC(=O)c1ccc(Nc2nc3cccc(-c4cc(F)c(CN5CCOCC5)c(F)c4)c3o2)cc1C,260
8,300,170,67,,,,,,,,,Cc1cc(-c2cccc3nc(Nc4ccc(N5CCN(C)CC5)cc4)oc23)ccc1C(=O)N1CCOCC1,200
